What all share (type): cell-based
One assay addresses T1, WEE1 (Homo sapiens, UniProt P30291+Q96SW2).
T1 construct: C-terminal ePL-tagged (DiscoverX, Fremont, CA) full-length WEE1 expression construct; expressed in transfected cells; host or cells: LentiX-HEK293T (Invitrogen), lentivirally transduced; the cells also over-express GSPT1-GN
As to the kind of experiment: WEE1-ePL degradation assay (293T-LentiX, InCELL Hunter luminescence, 4 hr). Conditions: for DC50: LentiX-HEK293T cells expressing WEE1-ePL, 4 hr incubation, read-out: 293T-LentiX WEE1-ePL Degradation 4 hr EC50; for 293T-LentiX WEE1-ePL Degradation 4 hr YMin (%): lower limit of fit, % of DMSO control signal remaining. The method, boiled down:
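LentiX-HEK293T cells expressing C-terminally ePL-tagged full-length WEE1 plus non-degradable GSPT1-GN (G575N, N-terminal 158 aa truncated). Treated 4 h at 37 °C with a 10-point, 3-fold series from 1 or 10 µM, then read by InCELL Hunter luminescence. EC50 from four-parameter logistic fit, Ymax set by DMSO control.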

In the next assay the test system is MDA-MB-231 cells. The assay is described as follows: MDA-MB-231 cell proliferation assay (Cell-Titer-Glo, 120 hr). The conditions noted are these: for EC50: read-out: MDA-MB 231 Cell Prolif. 120 hr EC50; for MDA-MB 231 Cell Prolif. 120 hr YMin (%): minimal percent of DMSO control observed. The method, boiled down:
(§1)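 MKN45 (400/well) and MDA-MB-231 (800/well) cells in RPMI with 10% FBS were exposed to 10-point half-log doses from 1 or 10 uM (0.1% DMSO) for 120 h at 37 °C. Viability was read by CellTiter-Glo luminescence. EC50 came from blank-subtracted, %DMSO four-parameter fits, with Ymin-obs as the lowest %DMSO observed.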

For a further assay, the system named is MKN45 cells. The assay is described as follows: MKN45 cell proliferation assay (Cell-Titer-Glo, 120 hr). The conditions noted are these: for EC50: Homo sapiens, MKN-45, 120 h, read-out: MKN45 Cell Prolif. 120 hr EC50; for MKN45 Cell Prolif. 120 hr YMin (%): minimal percent of DMSO control observed. The method, boiled down:
as §1

Where [1] appears, read: Homo sapiens, MDA-MB-231, 120 h.

The record followed here is patent US20250197374A1, “WEE1 DEGRADING COMPOUNDS AND USES THEREOF” (BRISTOL-MYERS SQUIBB COMPANY, priority 2023, published 2025).

Like-named read-outs stand apart in the source and are kept apart here.

T1 sequence (P30291 whole entry): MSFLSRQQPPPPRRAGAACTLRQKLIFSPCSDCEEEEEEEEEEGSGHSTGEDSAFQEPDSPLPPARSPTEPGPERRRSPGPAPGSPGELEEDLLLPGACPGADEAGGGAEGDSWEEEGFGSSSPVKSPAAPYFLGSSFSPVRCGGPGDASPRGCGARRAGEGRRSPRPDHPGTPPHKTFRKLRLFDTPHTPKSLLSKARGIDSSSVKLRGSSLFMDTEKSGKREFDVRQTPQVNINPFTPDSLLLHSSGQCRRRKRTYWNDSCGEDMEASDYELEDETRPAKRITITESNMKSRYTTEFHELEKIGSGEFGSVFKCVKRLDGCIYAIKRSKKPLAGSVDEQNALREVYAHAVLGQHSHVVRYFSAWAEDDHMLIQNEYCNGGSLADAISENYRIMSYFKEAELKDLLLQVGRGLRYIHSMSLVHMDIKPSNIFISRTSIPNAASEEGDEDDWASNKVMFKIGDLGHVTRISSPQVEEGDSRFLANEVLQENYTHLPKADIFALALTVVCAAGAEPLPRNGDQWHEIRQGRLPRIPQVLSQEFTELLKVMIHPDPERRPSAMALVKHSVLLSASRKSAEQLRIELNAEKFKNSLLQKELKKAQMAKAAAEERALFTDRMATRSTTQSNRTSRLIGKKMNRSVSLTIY
T1 sequence (Q96SW2 whole entry): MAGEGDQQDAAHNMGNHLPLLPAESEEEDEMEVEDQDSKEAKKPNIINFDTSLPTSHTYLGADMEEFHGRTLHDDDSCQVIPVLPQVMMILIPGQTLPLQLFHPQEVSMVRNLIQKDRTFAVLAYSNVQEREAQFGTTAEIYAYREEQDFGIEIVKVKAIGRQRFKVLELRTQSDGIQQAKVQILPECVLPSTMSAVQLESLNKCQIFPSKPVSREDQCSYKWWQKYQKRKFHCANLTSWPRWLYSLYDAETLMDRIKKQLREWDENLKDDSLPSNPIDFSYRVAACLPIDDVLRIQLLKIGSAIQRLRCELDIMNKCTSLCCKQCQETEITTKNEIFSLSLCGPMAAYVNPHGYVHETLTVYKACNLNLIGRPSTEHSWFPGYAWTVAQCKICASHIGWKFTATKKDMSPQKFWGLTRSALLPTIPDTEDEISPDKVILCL
T1 sequence (Q16531 whole entry partner): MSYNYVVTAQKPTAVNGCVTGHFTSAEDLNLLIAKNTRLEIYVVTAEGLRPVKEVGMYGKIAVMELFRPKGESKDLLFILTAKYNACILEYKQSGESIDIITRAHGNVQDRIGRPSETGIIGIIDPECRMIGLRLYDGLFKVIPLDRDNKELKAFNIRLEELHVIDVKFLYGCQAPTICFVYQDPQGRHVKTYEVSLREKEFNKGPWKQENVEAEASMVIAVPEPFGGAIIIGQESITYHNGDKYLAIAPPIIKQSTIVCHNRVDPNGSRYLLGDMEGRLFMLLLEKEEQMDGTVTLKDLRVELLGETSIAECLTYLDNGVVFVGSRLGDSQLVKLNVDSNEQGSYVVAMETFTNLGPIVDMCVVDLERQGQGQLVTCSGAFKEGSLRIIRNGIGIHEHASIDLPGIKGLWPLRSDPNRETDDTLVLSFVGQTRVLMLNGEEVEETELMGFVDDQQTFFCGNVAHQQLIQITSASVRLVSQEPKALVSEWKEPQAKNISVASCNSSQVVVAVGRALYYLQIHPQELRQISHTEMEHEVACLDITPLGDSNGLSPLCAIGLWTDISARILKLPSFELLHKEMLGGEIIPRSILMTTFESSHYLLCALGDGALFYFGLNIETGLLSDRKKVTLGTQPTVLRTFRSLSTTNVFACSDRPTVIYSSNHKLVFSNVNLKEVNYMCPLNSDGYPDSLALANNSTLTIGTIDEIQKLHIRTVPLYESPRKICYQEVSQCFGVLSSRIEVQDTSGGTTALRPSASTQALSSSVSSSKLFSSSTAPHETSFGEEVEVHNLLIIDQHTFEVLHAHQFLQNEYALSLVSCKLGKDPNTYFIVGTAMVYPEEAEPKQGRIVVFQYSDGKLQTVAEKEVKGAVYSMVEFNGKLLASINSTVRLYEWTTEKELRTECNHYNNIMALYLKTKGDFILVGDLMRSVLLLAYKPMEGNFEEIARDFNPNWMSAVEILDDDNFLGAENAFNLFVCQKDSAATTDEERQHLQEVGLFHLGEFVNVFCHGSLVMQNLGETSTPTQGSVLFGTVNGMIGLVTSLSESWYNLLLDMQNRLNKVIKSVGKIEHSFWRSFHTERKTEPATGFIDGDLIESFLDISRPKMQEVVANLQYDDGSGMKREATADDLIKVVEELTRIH

As to `COC[C@@H]1CN(Cc2cc(F)c3nc(N4CCN(C(C)=O)C5(COC5)C4)ccc3c2)C[C@H]1Oc1ccc2c(c1)CN([C@H]1CCC(=O)NC1=O)C2=O` [Example 93, (3S)-3-(5-{[(3S,4S)-1-[(2-{5-acetyl-2-oxa-5,8-diazaspiro[3.5]nonan-8-yl}-8-fluoroquinolin-6-yl)methyl]-4-(methoxymethyl)pyrrolidin-3-yl]oxy}-1-oxo-2,3-dihydro-1H-isoindol-2-yl)piperidine-2,6-dione], at WEE1, the DC50 is 1 nM and the “293T-LentiX WEE1-ePL Degradation 4 hr YMin (%)” value was found to be 21.9%. For the same compound, in the assay with MDA-MB-231 cells (setting [1]), the EC50 stood at 69 nM. In the assay with MDA-MB-231 cells, the “MDA-MB 231 Cell Prolif. 120 hr YMin (%)” value came out at 52.5%. Also, in the assay with MKN45 cells, the EC50 was found to be 1 nM and the “MKN45 Cell Prolif. 120 hr YMin (%)” value amounted to 7.9%.
Take `O=C1CC[C@H](N2Cc3cc(O[C@H]4CCN(Cc5ccc6nc([C@@H]7CCO[C@@]8(CCOC8)C7)ccc6c5)C4)ccc3C2=O)C(=O)N1` (relative stereo) [Example 20, rel-(3S)-3-(5-(((3S)-1-((2-(2,6-dioxaspiro[4.5]decan-9-yl)quinolin-6-yl)methyl)pyrrolidin-3-yl)oxy)-1-oxoisoindolin-2-yl)piperidine-2,6-dione]: at WEE1, the DC50 came to 1 nM and the “293T-LentiX WEE1-ePL Degradation 4 hr YMin (%)” value stood at 30.3%. The EC50 in the assay with MDA-MB-231 cells (setting [1]) worked out at 101 nM. The “MDA-MB 231 Cell Prolif. 120 hr YMin (%)” value with MDA-MB-231 cells was determined as 60.2%. In the assay on MKN45 cells, the half-maximal effective concentration (EC50) is 5 nM and the “MKN45 Cell Prolif. 120 hr YMin (%)” value is recorded as 11.6%.
On to `COC[C@@H]1CN(Cc2ccc3nc(N4CCN(C5CN(C)C5)CC4)ccc3c2)C[C@H]1Oc1ccc2c(c1)CN([C@H]1CCC(=O)NC1=O)C2=O` [Example 113, (3S)-3-(5-{[(3S,4S)-4-(methoxymethyl)-1-({2-[4-(1-methylazetidin-3-yl)piperazin-1-yl]quinolin-6-yl}methyl)pyrrolidin-3-yl]oxy}-1-oxo-2,3-dihydro-1H-isoindol-2-yl)piperidine-2,6-dione], for which, on WEE1, the DC50 is 9 nM and the “293T-LentiX WEE1-ePL Degradation 4 hr YMin (%)” value is 29.5%. The EC50 in the assay on MDA-MB-231 cells (setting [1]) came out at 98 nM. In addition, the “MDA-MB 231 Cell Prolif. 120 hr YMin (%)” value with MDA-MB-231 cells is reported as 55.3%. In addition, in the assay on MKN45 cells, the EC50 was 4 nM and the “MKN45 Cell Prolif. 120 hr YMin (%)” value was determined as 9.0%.
Take `COC[C@@H]1CN(Cc2cc(F)c3nc(N4C[C@@H]5CCO[C@@H]5C4)ncc3c2)C[C@H]1Oc1ccc2c(c1)CN([C@H]1CCC(=O)NC1=O)C2=O` (single isomer, unassigned) [Example 13, (S)-3-(5-(((3S,4S)-1-((8-fluoro-2-((3aS*,6aS*)-hexahydro-5H-furo[2,3-c]pyrrol-5-yl)quinazolin-6-yl)methyl)-4-(methoxymethyl)pyrrolidin-3-yl)oxy)-1-oxoisoindolin-2-yl)piperidine-2,6-dione]: at WEE1, the DC50 stood at 1 nM and the “293T-LentiX WEE1-ePL Degradation 4 hr YMin (%)” value came out at 22.1%. For the same compound, the EC50 with MDA-MB-231 cells (setting [1]) worked out at 61 nM. Also, the “MDA-MB 231 Cell Prolif. 120 hr YMin (%)” value with MDA-MB-231 cells was found to be 37.3%. Moreover, in the assay with MKN45 cells, the EC50 stood at 3 nM and the “MKN45 Cell Prolif. 120 hr YMin (%)” value is 11.9%.
In the case of `COC[C@@H]1CN(Cc2cc(F)c3nc(N4CCC(OC)C4)ccc3c2)C[C@H]1Oc1ccc2c(c1)CN([C@H]1CCC(=O)NC1=O)C2=O` (single isomer, unassigned) [Example 97, (S)-3-(5-(((3S,4S)-1-((8-fluoro-2-((R*)-3-methoxypyrrolidin-1-yl)quinolin-6-yl)methyl)-4-(methoxymethyl)pyrrolidin-3-yl)oxy)-1-oxoisoindolin-2-yl)piperidine-2,6-dione], on WEE1, the DC50 was 1 nM and the “293T-LentiX WEE1-ePL Degradation 4 hr YMin (%)” value is given as 29.8%. Moreover, the EC50 with MDA-MB-231 cells (setting [1]) was found to be 22 nM. In the assay on MDA-MB-231 cells, the “MDA-MB 231 Cell Prolif. 120 hr YMin (%)” value amounted to 22.0%. Besides, in the assay on MKN45 cells, the EC50 stood at 1 nM and the “MKN45 Cell Prolif. 120 hr YMin (%)” value is on record as 8.7%.
`COC[C@@H]1CN(Cc2ccc3nc(N4C[C@H]5CCO[C@H]5C4)ncc3c2)C[C@H]1Oc1ccc2c(c1)CN([C@H]1CCC(=O)NC1=O)C2=O` (single isomer, unassigned) [Example 8, (S)-3-(5-(((3S,4S)-1-((2-((3aR*,6aR*)-hexahydro-5H-furo[2,3-c]pyrrol-5-yl)quinazolin-6-yl)methyl)-4-(methoxymethyl)pyrrolidin-3-yl)oxy)-1-oxoisoindolin-2-yl)piperidine-2,6-dione]: at WEE1, the DC50 stood at 4 nM and the “293T-LentiX WEE1-ePL Degradation 4 hr YMin (%)” value turned out to be 27.5%. In addition, the EC50 in the assay on MDA-MB-231 cells (setting [1]) stood at 105 nM. For the same compound, the “MDA-MB 231 Cell Prolif. 120 hr YMin (%)” value with MDA-MB-231 cells stood at 31.9%. In addition, in the assay on MKN45 cells, the EC50 was 6 nM and the “MKN45 Cell Prolif. 120 hr YMin (%)” value is listed as 10.0%.
With `COC[C@@H]1CN(Cc2cc(F)c3nc(N4CCC(C(C)(C)O)CC4)ccc3c2)C[C@H]1Oc1ccc2c(c1)CN([C@H]1CCC(=O)NC1=O)C2=O` [Example 110, (3S)-3-(5-{[(3S,4S)-1-({8-fluoro-2-[4-(2-hydroxypropan-2-yl)piperidin-1-yl]quinolin-6-yl}methyl)-4-(methoxymethyl)pyrrolidin-3-yl]oxy}-1-oxo-2,3-dihydro-1H-isoindol-2-yl)piperidine-2,6-dione], the “293T-LentiX WEE1-ePL Degradation 4 hr YMin (%)” value on WEE1 was 27.3%. Also, the EC50 with MDA-MB-231 cells (setting [1]) is 12 nM. Also, the “MDA-MB 231 Cell Prolif. 120 hr YMin (%)” value with MDA-MB-231 cells is recorded as 17.4%. Besides, the “MKN45 Cell Prolif. 120 hr YMin (%)” value in the assay on MKN45 cells came out at 6.8%.
For the compound `COC[C@@H]1CN(Cc2cc3ccc(N4CCOCC4)cc3cn2)C[C@H]1Oc1ccc2c(c1)CN([C@H]1CCC(=O)NC1=O)C2=O` [Example 28, (3S)-3-(5-{[(3S,4S)-4-(methoxymethyl)-1-{[7-(morpholin-4-yl)isoquinolin-3-yl]methyl}pyrrolidin-3-yl]oxy}-1-oxo-2,3-dihydro-1H-isoindol-2-yl)piperidine-2,6-dione], at WEE1, the DC50 is 1 nM and the “293T-LentiX WEE1-ePL Degradation 4 hr YMin (%)” value is on record as 29.1%. Also, the EC50 in the assay with MDA-MB-231 cells (setting [1]) was determined as 48 nM. The “MDA-MB 231 Cell Prolif. 120 hr YMin (%)” value in the assay with MDA-MB-231 cells was found to be 22.1%. Also, in the assay on MKN45 cells, the EC50 is 1 nM and the “MKN45 Cell Prolif. 120 hr YMin (%)” value is reported as 11.2%.
Regarding `COC[C@@H]1CN(Cc2cc(F)c3nc(N4CCCC4=O)ccc3c2)C[C@H]1Oc1ccc2c(c1)CN([C@H]1CCC(=O)NC1=O)C2=O` [Example 59, (3S)-3-(5-{[(3S,4S)-1-{[8-fluoro-2-(2-oxopyrrolidin-1-yl)quinolin-6-yl]methyl}-4-(methoxymethyl)pyrrolidin-3-yl]oxy}-1-oxo-2,3-dihydro-1H-isoindol-2-yl)piperidine-2,6-dione], at WEE1, the DC50 worked out at 1 nM and the “293T-LentiX WEE1-ePL Degradation 4 hr YMin (%)” value amounted to 29.1%. In the assay on MDA-MB-231 cells (setting [1]), the EC50 was found to be 61 nM. Also, in the assay on MDA-MB-231 cells, the “MDA-MB 231 Cell Prolif. 120 hr YMin (%)” value is 12.1%. In the assay on MKN45 cells, the EC50 is 1 nM and the “MKN45 Cell Prolif. 120 hr YMin (%)” value came out at 10.7%.
For `COC[C@@H]1CN(Cc2cc(F)c3nc(N4CCC45CCOCC5)ncc3c2)C[C@H]1Oc1ccc2c(c1)CN([C@H]1CCC(=O)NC1=O)C2=O` [Example 73, (3S)-3-(5-{[(3S,4S)-1-[(8-fluoro-2-{7-oxa-1-azaspiro[3.5]nonan-1-yl}quinazolin-6-yl)methyl]-4-(methoxymethyl)pyrrolidin-3-yl]oxy}-1-oxo-2,3-dihydro-1H-isoindol-2-yl)piperidine-2,6-dione], on WEE1, the DC50 was found to be 1 nM and the “293T-LentiX WEE1-ePL Degradation 4 hr YMin (%)” value was 28.9%. For the same compound, the EC50 with MDA-MB-231 cells (setting [1]) came out at 41 nM. Further, the “MDA-MB 231 Cell Prolif. 120 hr YMin (%)” value in the assay with MDA-MB-231 cells turned out to be 34.0%. In addition, in the assay with MKN45 cells, the EC50 amounted to 3 nM and the “MKN45 Cell Prolif. 120 hr YMin (%)” value is 9.4%.
With `COC[C@@H]1CN(Cc2ccc3nc(N4C[C@H]5CCO[C@H]5C4)ccc3c2)C[C@H]1Oc1ccc2c(c1)CN([C@H]1CCC(=O)NC1=O)C2=O` (single isomer, unassigned) [Example 5, (S)-3-(5-(((3S,4S)-1-((2-((3aR*,6aR*)-hexahydro-5H-furo[2,3-c]pyrrol-5-yl)quinolin-6-yl)methyl)-4-(methoxymethyl)pyrrolidin-3-yl)oxy)-1-oxoisoindolin-2-yl)piperidine-2,6-dione], on WEE1, the DC50 amounted to 1 nM and the “293T-LentiX WEE1-ePL Degradation 4 hr YMin (%)” value came out at 32.3%. Moreover, in the assay on MDA-MB-231 cells (setting [1]), the EC50 stood at 12 nM. In addition, the “MDA-MB 231 Cell Prolif. 120 hr YMin (%)” value with MDA-MB-231 cells worked out at 45.5%. Moreover, in the assay on MKN45 cells, the EC50 stood at 1 nM and the “MKN45 Cell Prolif. 120 hr YMin (%)” value came to 10.6%.
With `CN1CC2(CC(c3ccc4cc(CN5CC[C@H](Oc6ccc7c(c6)CN([C@H]6CCC(=O)NC6=O)C7=O)C5)ccc4n3)CO2)C1` (single isomer, unassigned) [Example 1, (S)-3-(5-(((S)-1-((2-((R*)-2-methyl-5-oxa-2-azaspiro[3.4]octan-7-yl)quinolin-6-yl)methyl)pyrrolidin-3-yl)oxy)-1-oxoisoindolin-2-yl)piperidine-2,6-dione], on WEE1, the DC50 amounted to 368 nM and the “293T-LentiX WEE1-ePL Degradation 4 hr YMin (%)” value is on record as 30.7%. In the assay on MDA-MB-231 cells, the “MDA-MB 231 Cell Prolif. 120 hr YMin (%)” value is on record as 70.9% and the EC50 came out at 1560 nM. Further, in the assay with MKN45 cells, the concentration for a half-maximal effect (EC50) came out at 75 nM and the “MKN45 Cell Prolif. 120 hr YMin (%)” value is listed as 16.1%.
